Results as given in ChEMBL document CHEMBL1828496 (Eur J Med Chem, 2011).

Legend:
[1] = Hydrolytic stability of the compound in acetonitrile after 1 to 24 hrs by NMR spectroscopic analysis; type: physicochemical
[2] = biological target: T1, Amine oxidase [flavin-containing] A (Homo sapiens, UniProt P21397); assay: Inhibition of human recombinant MAO-A expressed in baculovirus infected BTI-TN-5B1-4 cells assessed as production of hydrogen peroxide from p-tyramine at 100 uM after 15 mins by microplate fluorescence assay; conditions: human, bti-tn-5b1-4, 0.25 h, 100 µM
T1 sequence (P21397 whole entry): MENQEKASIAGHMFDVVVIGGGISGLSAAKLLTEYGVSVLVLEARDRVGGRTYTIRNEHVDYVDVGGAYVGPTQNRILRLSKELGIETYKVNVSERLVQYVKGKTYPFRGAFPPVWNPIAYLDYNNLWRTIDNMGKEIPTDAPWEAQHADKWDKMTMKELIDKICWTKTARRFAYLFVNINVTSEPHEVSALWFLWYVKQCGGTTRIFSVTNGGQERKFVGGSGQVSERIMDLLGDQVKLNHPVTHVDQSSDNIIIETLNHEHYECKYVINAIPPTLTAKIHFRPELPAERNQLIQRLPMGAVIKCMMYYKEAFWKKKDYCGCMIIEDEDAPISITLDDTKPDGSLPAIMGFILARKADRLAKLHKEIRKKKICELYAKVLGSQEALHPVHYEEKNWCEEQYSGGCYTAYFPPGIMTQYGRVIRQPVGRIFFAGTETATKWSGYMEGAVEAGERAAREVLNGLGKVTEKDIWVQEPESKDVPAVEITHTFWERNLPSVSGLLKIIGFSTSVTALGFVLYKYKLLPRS

[3] = biological target: T2, Amine oxidase [flavin-containing] B (Homo sapiens, UniProt P27338); assay: Inhibition of human recombinant MAO-B expressed in baculovirus infected BTI-TN-5B1-4 cells assessed as production of hydrogen peroxide from p-tyramine at 100 uM after 15 mins by microplate fluorescence assay; conditions: human, bti-tn-5b1-4, 0.25 h, 100 µM
T2 sequence (P27338 whole entry): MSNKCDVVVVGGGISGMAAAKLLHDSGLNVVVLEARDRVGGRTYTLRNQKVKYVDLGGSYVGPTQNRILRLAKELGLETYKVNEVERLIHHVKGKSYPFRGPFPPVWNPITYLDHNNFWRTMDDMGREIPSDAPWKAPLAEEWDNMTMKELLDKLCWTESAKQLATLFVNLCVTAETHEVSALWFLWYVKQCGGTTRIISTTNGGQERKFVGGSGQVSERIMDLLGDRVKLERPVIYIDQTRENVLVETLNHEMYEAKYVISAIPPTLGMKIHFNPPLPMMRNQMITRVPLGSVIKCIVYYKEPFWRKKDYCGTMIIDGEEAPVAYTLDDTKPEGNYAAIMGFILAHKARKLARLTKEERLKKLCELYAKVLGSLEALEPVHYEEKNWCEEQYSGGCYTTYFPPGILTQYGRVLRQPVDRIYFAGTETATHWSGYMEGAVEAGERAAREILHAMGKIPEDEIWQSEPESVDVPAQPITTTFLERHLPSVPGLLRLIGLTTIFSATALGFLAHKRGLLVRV

[4] = Hydrolytic stability of the compound in phosphate buffer at pH 7.4 after 1 to 24 hrs by NMR spectroscopic analysis; type: physicochemical
[5] = Hydrolytic stability of the compound in water after 1 to 24 hrs by NMR spectroscopic analysis; type: physicochemical
[6] = Hydrolytic stability of the compound in dimethyl sulfoxide after 1 to 24 hrs by NMR spectroscopic analysis; type: physicochemical
[7] = species on record: Homo sapiens; assay: Selectivity ratio of IC50 for human recombinant MAO-A to IC50 for human recombinant MAO-B
[8] = biological target: T1, Amine oxidase [flavin-containing] A; assay: Inhibition of human recombinant MAO-A expressed in baculovirus infected BTI-TN-5B1-4 cells assessed as production of hydrogen peroxide from p-tyramine after 15 mins by microplate fluorescence assay
[9] = biological target: T2, Amine oxidase [flavin-containing] B; assay: biochemical; type: cell-based, BTI-TN-5B1-4
Description: Inhibition of human recombinant MAO-B expressed in baculovirus infected BTI-TN-5B1-4 cells assessed as production of hydrogen peroxide from p-tyramine after 15 mins by microplate fluorescence assay

[10] = biological target: T2, Amine oxidase [flavin-containing] B; assay: Inhibition of human recombinant MAO-B expressed in baculovirus infected BTI-TN-5B1-4 cells assessed as production of hydrogen peroxide from p-tyramine at 1 mM after 15 mins by microplate fluorescence assay; conditions: bti-tn-5b1-4, 0.25 h, 1000 µM

| SMILES | Stability [1] | inhibition (INH) [2] | inhibition (INH) [3] | Stability [4] | Stability [5] | Stability [6] | Ratio IC50 [7] | IC50 [8] | IC50 [9] | inhibition (INH) [10] |
| --- | --- | --- | --- | --- | --- | --- | --- | --- | --- | --- |
| CCOC(=O)c1cc2cc(I)cc(I)c2oc1=O | Stable | Not Active | Not Active | Stable | Stable | Stable | – | – | – | – |
| CCOC(=O)c1cc2ccc(OC3CCCCCC3)cc2oc1=O | Stable | – | – | Stable | Stable | Stable | 2160 | 46.4 µM | 0.0215 µM | – |
| NNC(=O)c1cc2ccccc2oc1=O | Stable | Not Active | – | Stable | Stable | Stable | > 31100 | – | 0.00322 µM | – |
| CCOC(=O)c1cc2ccc(OCc3ccc(C(C)(C)C)cc3)cc2oc1=O | Stable | Not Active | – | Stable | Stable | Stable | > 27 | – | 3.75 µM | – |
| O=C(NNc1ccccc1)c1cc2ccccc2oc1=O | Stable | – | – | Stable | Stable | Stable | 9.16 | 41.4 µM | 4.52 µM | – |
| O=C(NCCN1CCOCC1)c1ccc(Cl)cc1 [MOCLOBEMIDE] | – | – | – | – | – | – | – | – | – | Not Active |
